Experimental data as given in US20230240291A1, “FUNGICIDAL COMPOSITIONS” (SYNGENTA CROP PROTECTION AG, priority 2020, published 2023).
*1 amine or outer side, *2 acyl side, *3 side chain or, on linkers, in order; H or OH if unused. Where a SMILES comes first, the peptide text is derived from it. [ ]: non-standard residue; d: D form. ξ: configuration not given here. ξNMeVal(3-OH) = CNC(C(=O)O)C(C)(C)O; NMeF = CN[CH](Cc1ccccc1)C(=O)O; X1 = CCC(C)C(O[*:1])C(=O)[*:2]; NMeV = CN[CH](C(=O)O)C(C)C

How the values were obtained:
Alternaria solani = assay type: cell-based; details: 48 hours
Experimental: (§1) Mycelia fragments or conidia suspensions of a fungus, prepared either freshly from liquid cultures of the fungus or from cryogenic storage, are directly mixed into nutrient broth. DMSO solutions of the test compound (max. 10 mg/mL) is diluted with 0.025% Tween20 by factor 50 and 10 µL of this solution is pipetted into a microtiter plate (96-well format). The nutrient broth containing the fungal spores/mycelia fragments is then added to give an end concentration of the tested compound. The test plates are incubated in the dark at 24° C. and 96% relative humidity (rh). The inhibition of fungal growth is determined photometrically and visually after 3 - 7 days, depending on the pathosystem, and percent antifungal activity relative to the untreated check is calculated.
Conidia of the fungus from cryogenic storage were directly mixed into nutrient broth (PDB potato dextrose broth). After placing a DMSO solution of the test compositions into a microtiter plate (96-well format) the nutrient broth containing the fungal spores was added.

Botrytis cinerea = test: microbe, parasite or virus in culture; assay type: cell-based; details: 72 hours
Experimental: as §1, with “The nutrient broth containing the fungal spores/mycelia fragments is then added to give an end concentration of the tested compound.” left out
Conidia of the fungus from cryogenic storage were directly mixed into nutrient broth (PDB potato dextrose broth). After placing a DMSO solution of the test compositions into a microtiter plate (96-well format), the nutrient broth containing the fungal spores was added.

SMILES: C=CCOC(Cn1ccnc1)c1ccc(Cl)cc1Cl (centres unmarked) [Imazalil]
- (B) inhibition (Alternaria solani; component (B) 0.5 ppm alone): 35%

SMILES: CC(C)NC(=O)N1CC(=O)N(c2cc(Cl)cc(Cl)c2)C1=O [Iprodione, iprodione]
- inhibition at 0.125 ppm (Botrytis cinerea; Botrytis cinerea, Iprodione 0.125 ppm alone, read-out: (B) inhibition): 4%
- inhibition at 0.25 ppm (Botrytis cinerea; Botrytis cinerea, Iprodione 0.250 ppm alone, read-out: (B) inhibition): 0%

SMILES: N#Cc1c[nH]cc1-c1cccc2c1OC(F)(F)O2 [Fludioxonil, fludioxonil]
- inhibition at […] (Botrytis cinerea; Botrytis cinerea, Fludioxonil 0.0063 ppm alone, read-out: (B) inhibition): 0%

SMILES: CCC(C)C1NC(=O)C2CCCN2C(=O)C(Cc2ccccc2)N(C)C(=O)C(Cc2ccccc2)NC(=O)C(C(C)C)N(C)C(=O)C(C(C)CC)OC(=O)C(C(C)(C)O)N(C)C(=O)C(CC(C)C)NC(=O)C(C(C)C)N(C)C1=O (centres unmarked) [Aureobasidin A] (cyclo([ξNMeVal(3-OH)][X1][NMeV]F[NMeF]PI[NMeV]L); configuration not given here)
- (A) inhibition (Botrytis cinerea; Aureobasidin A 0.01 ppm alone, fludioxonil table): 22%
- (A) inhibition (Botrytis cinerea; Aureobasidin A 0.01 ppm alone, growth inhibition, photometric, iprodione table): 18%
- (A) inhibition (Botrytis cinerea; Aureobasidin A 0.02 ppm alone, iprodione table): 60%
- (A) inhibition (Alternaria solani; Aureobasidin A 0.005 ppm alone, growth inhibition, photometric): 11%
